As usually defined, the Km is the substrate concentration at which the rate is half of its maximum.

The values that follow come from US7560262B2, “Polynucleotide sequences encoding alkaline α-galactosidases and methods of using same” (The State of Israel - Ministry of Agriculture & Rural …, priority 2002, dated 2009).

In data set [1] the target is recombinant Aga-I (alkaline-α-galactosidase I) (Cucumis melo, UniProt A0ABM3L1M0). In words: α-galactosidase assay of E. coli extracts: substrate specificity of recombinant Aga-I. Format: biochemical. Conditions: for activity of recombinant Aga-I with nitrophenyl substrates: recombinant Aga-I extract; for Activity (calculated specific activity): recombinant Aga-I, substrate 10 mM, pH 8. The protocol:
α-galactosidase assay of E. coli extracts—α-galactosidase activity was assayed as described by Smart and Pharr [Smart and Pharr (1980) Plant Physiol. 66:731-734] and as performed by Gao and Schaffer (1999) Plant Physiol. 119:979-987]. Reaction was initiated by adding 50 μl enzyme aliquot to 200 μl McIlvaine buffer (made by mixing stock solutions of 0.1M citric acid and 0.2M sodium hydrogen phosphate to achieve pH of 5.0 and 7.0 for the assay of acid and alkaline activity, respectively) and 50 μl substrate (final concentration, 5 mM for pNPG and 10 mM for the natural substrates). Optimum pH for galactosidase activity was determined using the following reaction buffers: Mcllvaine buffer, over a pH range of 4 to 7, 100 mM Hepes buffer over a pH range of 7 to 8, or 50 mM Tris buffer over a pH range of 8 to 8.7. […] In addition, substrate concentration dependence of the reaction was measured by varying the substrate concentrations from 0-10 mM. Km and Vmax values were calculated using Lineweaver-Burk plots.

In data set [2] the test system is alkaline α-galactosidase from Cucurbita pepo leaves. Conditions: cited from earlier work; for affinity as substrate: Gaudreault and Webb; for inhibition of the enzyme's activity by the reaction product: Gaudreault and Webb 1983.
A short description of data set [3]: pH and temperature dependence of α-galactosidase activity of recombinant Aga-I and Aga-II. It is filed as biochemical. Conditions: for pH of maximal α-galactosidase activity: extracts of transformed E. coli, pNPG, FIG. 4. The protocol:
α-galactosidase assay of E. coli extracts—α-galactosidase activity was assayed as described by Smart and Pharr [Smart and Pharr (1980) Plant Physiol. 66:731-734] and as performed by Gao and Schaffer (1999) Plant Physiol. 119:979-987]. Reaction was initiated by adding 50 μl enzyme aliquot to 200 μl McIlvaine buffer (made by mixing stock solutions of 0.1M citric acid and 0.2M sodium hydrogen phosphate to achieve pH of 5.0 and 7.0 for the assay of acid and alkaline activity, respectively) and 50 μl substrate (final concentration, 5 mM for pNPG and 10 mM for the natural substrates). […] Substrates used were the synthetic substrates based on p-nitrophenol (pNP-sugars), including the pNPa-gal (Sigma) and the natural substrates stachyose, raffinose and melibiose. In addition, substrate concentration dependence of the reaction was measured by varying the substrate concentrations from 0-10 mM. Km and Vmax values were calculated using Lineweaver-Burk plots.

Substrate in data set [4]: OC[C@H]1O[C@H](OC[C@H]2O[C@H](OC[C@H]3O[C@H](O[C@]4(CO)O[C@H](CO)[C@@H](O)[C@@H]4O)[C@H](O)[C@@H](O)[C@@H]3O)[C@H](O)[C@@H](O)[C@H]2O)[C@H](O)[C@@H](O)[C@H]1O
Briefly: purified protein, by the assay type. Particulars: other: recombinant Aga-I, pH 8, Lineweaver-Burk plots.

Substrate in data set [5]: OC[C@H]1O[C@H](OC[C@H]2O[C@H](O[C@]3(CO)O[C@H](CO)[C@@H](O)[C@@H]3O)[C@H](O)[C@@H](O)[C@@H]2O)[C@H](O)[C@@H](O)[C@H]1O
In words: purified protein, by the assay type. Particulars: other: recombinant Aga-I, pH 8, Lineweaver-Burk plots.

Where two headings read alike, the source gives them in different places.

Turning to `CC(=O)N[C@H]1[C@H](Oc2ccc([N+](=O)[O-])cc2)O[C@H](CO)[C@@H](O)[C@@H]1O` [pNP-NacG], in data set [1], the “activity of recombinant Aga-I with nitrophenyl substrates” value (“activity of recombinant Aga-I” for short) is on record as “no activity”.

`O=[N+]([O-])c1ccc(O[C@H]2O[C@H](CO)[C@@H](O)[C@H](O)[C@H]2O)cc1` [pNP-αGlu]: the “activity of recombinant Aga-I” value in data set [1] is given as “no activity”.

In the case of `O=[N+]([O-])c1ccc(O[C@H]2O[C@H](CO)[C@@H](O)[C@H](O)[C@@H]2O)cc1` [pNP-αMan], in data set [1], the “activity of recombinant Aga-I” value is “no activity”.

For “6-O-α-D-galactopyranosyl-D-glucose [Melibiose]”, the “Activity (calculated specific activity)” value in data set [1] was 124 nmol/mg protein/minute. Also, the affinity as substrate result in data set [2] is “low affinity”.

As to `O=[N+]([O-])c1ccc(O[C@@H]2O[C@H](CO)[C@@H](O)[C@H](O)[C@H]2O)cc1` [pNP-βGlu], the “activity of recombinant Aga-I” value in data set [1] was “no activity”.

In the case of `C[C@@H]1O[C@@H](Oc2ccc([N+](=O)[O-])cc2)[C@@H](O)[C@H](O)[C@@H]1O` [pNP-Fuc], the “activity of recombinant Aga-I” value in data set [1] is “no activity”.

`OC[C@H]1O[C@H](OC[C@H]2O[C@H](O[C@]3(CO)O[C@H](CO)[C@@H](O)[C@@H]3O)[C@H](O)[C@@H](O)[C@@H]2O)[C@H](O)[C@@H](O)[C@H]1O` [Raffinose, O-α-D-galactopyranosyl-(1-6)-O-α-D-glucopyranosyl-(1-2)-beta-D-fructofuranoside]: the “Activity (calculated specific activity)” value in data set [1] is recorded as 482 nmol/mg protein/minute. For the same molecule, in data set [2], the affinity as substrate entry is “low affinity”.

In the case of `OC[C@H]1O[C@H](OC[C@H]2O[C@H](OC[C@H]3O[C@H](O[C@]4(CO)O[C@H](CO)[C@@H](O)[C@@H]4O)[C@H](O)[C@@H](O)[C@@H]3O)[C@H](O)[C@@H](O)[C@H]2O)[C@H](O)[C@@H](O)[C@H]1O` [Stachyose, O-α-D-galactopyranosyl-(1-6)-O-α-D-galactopyranosyl-(1-6)-O-α-D-glucopyranosyl-(1-2)-beta-D-fructofuranoside], the “Activity (calculated specific activity)” value in data set [1] was 645 nmol/mg protein/minute.

As to `O=[N+]([O-])c1ccc(O[C@@H]2O[C@H](CO)[C@@H](O)[C@H](O)[C@@H]2O)cc1` [pNP-βMan], the “activity of recombinant Aga-I” value in data set [1] is listed as “no activity”.

As to `O=[N+]([O-])c1ccc(O[C@@H]2O[C@H](CO)[C@H](O)[C@H](O)[C@H]2O)cc1` [pNP-βGal], the “activity of recombinant Aga-I” value in data set [1] is listed as “some activity”.

`OC[C@H]1O[C@H](O)[C@H](O)[C@@H](O)[C@H]1O` [α-D-galactose]: the results for the “inhibition of the enzyme's activity by the reaction product” value in data set [2] and in data set [2] (listed as α-galactose) were “strong inhibitor” and “strongly inhibited”, respectively.

B1: Aga-II: Cucumis melo alkaline α-galactosidase II, SEQ ID NO: 10, encoded by SEQ ID NO: 9 (protein)
chain: MTVTPKISVNDGNLVVHGKTILTGVPDNIVLTPGSGLGLVAGAFIGATASNSKSLHVFPVGVLEGTRFLCCFRFKLWWMTQRMGTSGRDIPFETQFLLMESKGNDGEDPDNSSTIYTVFLPLLEGQFRAALQGNEKNEMEICLESGDNTVETNQGLSLVYMHAGTNPFEVITQAVKAVEKHTQTFLHREKKKLPSFLDWFGWCTWDAFYTDVTAEGVVEGLKSLSEGGAPPKFLIIDDGWQQIEAKPKDADCVVQEGAQFASRLSGIKENHKFQKNGNNYDQVPGLKVVVDDAKKQHKVKFVYAWHALAGYWGGVKPASPGMEHYDSALAYPVQSPGMLGNQPDIVVDSLAVHGIGLVHPKKVFNFYNELHSYLASCGIDGVKVDVQNIIETLGAGHGGRVTLTRSYHQALEASIARNFSDNGCIACMCHNTDSLYSAKQTAVVRASDDYYPRDPASHTIHISSVAYNSLFLGEFMQPDWDMFHSLHPTAEYHGAARAIGGCAIYVSDKPGNHNFDLLKKLVLPDGSVLRAQLPGRPTRDSLFNDPARDGTSLLKIWNMNKCSGVVGVFNCQGAGWCRITKKTRIHDESPGTLTTSVRAADVDAISQVAGADWKGDTIVYAYRSGDLIRLPKGASVPVTLKVLEYDLLHISPLKDIASNISFAPIGLLDMFNTGGAVEQVNVQVVEPIPEFDGEVASELTCSLPNDRPPTATITMKARGCRRFGLYSSQRPLKCSVDKVDVDFVYDEVTGLVTFEIPIPTEEMYRWNIEIQV
modifications: Cucumis melo
Take B1: the “pH of maximal α-galactosidase activity” value in data set [3] came to 8 pH.

B2: recombinant Aga-I (alkaline-α-galactosidase I) (Cucumis melo) (protein)
chain: MTVGAGITISDANLTVLGNRVLSDVHNNITLTAAPGGGVMNGAFIGVQSDQIGSRRVFPIGKLIGLRFLCAFRFKLWWMTQRMGCSGQEVPFETQFLVVETRDGSNIAGNGEEGDAVYTVFLPILEGDFRAVLQGNDNNEIEICLESGDPSVDGFEGSHLVFVGAGSDPFETITYAVKSVEKHLQTFAHRERKKMPDILNWFGWCTWDAFYTDVTSDGVKKGLESFENGGIPPKFVIIDDGWQSVAKDATSADCKADNTANFANRLTHIKENYKFQKDGKEGERIENPALGLQHIVSYMKEKHATKYVYVWHAITGYWGGVSAGVKEMEQYESKIAYPVASPGVESNEPCDALNSITKTGLGLVNPEKVFNFYNEQHSYLASAGVDGVKVDVQNILETLGAGHGGRVKLARKYHQALEASISRNFQDNGIISCMSHNTDGLYSSKRNAVIRASDDFWPRDPASHTIHIASVAYNSLFLGEFMQPDWDMFHSLHPMAEYHGAARAVGGCAIYVSDKPGQHDFNLLKKLVLPDGSILRAKLPGRPTKDCLFTDPARDGKSLLKIWNLNDLSGVVGVFNCQGAGWCKVGKKNLIHDENPDTITGVIRAKDVSYLWKIAGESWTGDAVIFSHLAGEVVYLPQDASMPITLKPREFDVFTVVPVKELVNDIKFAPIGLIKMFNSGGAVKEMNHQPGSSNVSLKVRGSGPFGAYSSSKPKRVAVDSEEVEFMYDEGGLITIDLKVPEKELYLWDIRIEL
For the molecule B2, the Km in data set [4] was determined as 1.9 mM; in data set [5], 1.8 mM.

B3: Aga-I: Cucumis melo alkaline-α-galactosidase I, SEQ ID NO: 6, encoded by SEQ ID NO: 5 (protein)
chain: B2 chain
modifications: Cucumis melo
Take B3: the “pH of maximal α-galactosidase activity” value in data set [3] was determined as 8 pH. The “galactosidase activity at pH 9” value in data set [3] (pH 9, data not shown) is on record as “activity was still observed”. In addition, the “pH range of highest galactosidase activity” value in data set [3] (recombinant Aga-I, data not shown) is 7.5-8 pH.
